Laboratory results from patent US4087461A, “Anti-androgenic steroids” (The Johns Hopkins University, priority 1977, dated 1978).

Experiments:
[1] = tested on: endogenous androgen biosynthesis; assay: study in intact male rats: weights of sex accessory tissue and other organs; type: in vivo, male Sprague-Dawley rats
Protocol: Studies with intact male Sprague-Dawley rats (300g body weight) are illustrated for compounds (1) and (2).
Similarly, compound (2), […] rats at a dosage of 20mg per kilo for 7 days produced 20% reduction in weight of the ventral prostate and 28% reduction of the dorsal lateral prostate.
The following data illustrates the inhibiting effect of estryne and pregnyne on Δ^5 -3-ketosteroid isomerase (EC 5.3.3.1) as evidenced by a depression of the wet weight of the sex accessory tissue in the mature male rat treated with the estryne and pregnyne.
A. Male rats were used to assess the effect of estryne on endogenous androgen biosynthesis at varying doses (1-20 mg/kg body weight). […] On the eighth day the animals were sacrificed and the ventral prostate, dorsal lateral prostate, seminal vesicles, testes, kidneys, and adrenals were removed and weighed. Samples of each tissue were preserved in 10% buffered formalin for histological examination.
B. Male rats were treated with 19-norpregnyne by a regimen exactly as described for the estryne.

[2] = tested on: ventral prostate and dorsal lateral prostate; assay: effects of 6β(H)-allenic ketone on intact male Sprague-Dawley rats: body and prostate weights; type: in vivo; conditions: 0.6mg in propylene glycol (0.2ml) daily for 7 days, i.p.
Protocol: Effects of 6β(H)-5,10-Seco-19-norestra-4,5-diene-3,10,17-trione on intact male Sprague-Dawley rats
The compound (0.6mg) dissolved in propylene glycol (0.2ml) was administered daily for 7 days by the intraperitoneal route. The experimental group and control group each comprised 5 animals; and weghts of animals as well the wet tissue weights of ventral prostate and dorsal lateral prostate are averaged for each group.

[3] = biological target: Δ^5 -3-ketosteroid isomerase (Comamonas testosteroni, UniProt P00947); assay: inhibition of isomerase by allenic ketones, pseudo first order conditions; type: biochemical, Pseudomonas testosteroni; conditions: for half life for loss of enzyme activity / isomerisation of the allenic ketone under assay conditions: allenic ketone 200 μM, 1 mM phosphate buffer, pH = 7; for isomerisation of the allenic ketone under assay conditions: isomerase
Text: As noted above, the acetylenic compounds of the invention, e.g. estryne and pregnyne, are converted into the corresponding conjugated allenic ketones which then react irreversibly with the enzyme. These allenic ketones are also novel and constitute an important embodiment of the invention. The allenic ketones derived from estryne are 6β(H)-5,10-secoestra-4,5-diene-3,10,17-trione and 6α(H)-5,10-secoestra-4,5-diene-3,10,17-trione. These allenic ketones have been tested as inhibitors of isomerase and have been found effective in this regard.

immature uterus = assay: study of estrogenic activity (uterine weight of immature mice); conditions: same dosage schedule as estryne
Protocol: The animals were housed in a temperature controlled room under a constant lighting schedule and maintained on a diet of Charles River Rat Formula and water ad libitum. The diet of the hypophy-sectomized animals was supplemented with organges.
On the fourth day the uteri were removed and weighed.
Thus, immature female mice received estryne at doses up to a maximum of 100 μg total dose over three days, and the wet weight of the uteri were determined.

[4] = listed as 6β(H)-5,10-secoestra-4,5-diene-2,10,17-trione

Δ^5 -3-ketosteroid isomerase, sequence (P00947 whole entry, stated change not applied): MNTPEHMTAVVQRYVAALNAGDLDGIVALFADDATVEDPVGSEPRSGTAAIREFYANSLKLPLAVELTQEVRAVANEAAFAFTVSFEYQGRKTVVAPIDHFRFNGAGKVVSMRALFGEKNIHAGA

For C[C@]12CC[C@@H]3C(=O)CCC(=O)CC#CC[C@H]3[C@@H]1CCC2=O [Compound 5, 5,10-secoestr-5-yne-3,10,17-trione], the “reduction in weight of the ventral prostate” value ([1]; 13mg per kilo per day, s.c. in sesame oil, 7 days) was 30%, the “Average Weight of Ventral Prostate” value ([1]; 13mg/Kg (so in the source) in propylene glycol (0.2ml) per day for 7 days, i.p., control 421 mg) was 302 mg and the “Average Weight of Ventral Prostate” value ([1]; 13mg/Kg in sesame oil (0.2ml) per day for 7 days, s.c., control 238 mg) was 167 mg.

C[C@]12CC[C@@H]3C(=O)CCC(=O)C=C=CC[C@H]3[C@@H]1CCC2=O [6β(H)-5,10-secoestra-4,5-diene-3,10,17-trione] was tested, and the “Wt. of Dorsal Lateral Prostate” value ([2]; control 299 mg) was 235 mg, the “Wt. of Ventral Prostate” value ([2]; control 574 mg) was 488 mg and the “Wt. of Animals” value ([2]; control 388 g) was 382 g. The “half life for loss of enzyme activity” value [3, 4] was 9 min, the inhibition of isomerase ([3]; in words) was “effective” and the “isomerisation of the allenic ketone under assay conditions” value [3, 4] was “partially converted to the 6α isomer”.

In the case of C[C@]12CC[C@@H]3C(=O)CCC(=O)C=C=CC[C@H]3[C@@H]1CCC2=O [6α(H)-5,10-secoestra-4,5-diene-3,10,17-trione], the “half life for loss of enzyme activity” value [3] was 11 min and the “isomerisation of the allenic ketone under assay conditions” value [3] was “partially converted to the β-isomer”.

In the case of C[C@]12CC[C@@H]3c4ccc(O)cc4CC[C@H]3[C@@H]1CC[C@@H]2O [17β-estradiol], the “dose giving maximum stimulation (uterine weight)” value (immature uterus) was “about 8 μg” and the “lowest dose giving a positive response (uterine weight)” value (immature uterus; "as low as") was 0.67 µg.
